# Source: ChEMBL document CHEMBL5291721, “A preclinical secondary pharmacology resource illuminates target-adverse drug reaction associations of marketed drugs” (Nat Commun, 2023)
# Experiments:
# Histamine H1 receptor [1] = molecular target: T1, Histamine H1 receptor (Homo sapiens, UniProt P35367); format: functional, cell-based
# Histamine H1 receptor [2] = molecular target: T1, Histamine H1 receptor; format: functional, cell-based; remark: listed apart in the source
# Androgen receptor = molecular target: T2, Androgen receptor (Rattus norvegicus, UniProt P15207); format: functional
# T2 sequence (P15207 whole entry): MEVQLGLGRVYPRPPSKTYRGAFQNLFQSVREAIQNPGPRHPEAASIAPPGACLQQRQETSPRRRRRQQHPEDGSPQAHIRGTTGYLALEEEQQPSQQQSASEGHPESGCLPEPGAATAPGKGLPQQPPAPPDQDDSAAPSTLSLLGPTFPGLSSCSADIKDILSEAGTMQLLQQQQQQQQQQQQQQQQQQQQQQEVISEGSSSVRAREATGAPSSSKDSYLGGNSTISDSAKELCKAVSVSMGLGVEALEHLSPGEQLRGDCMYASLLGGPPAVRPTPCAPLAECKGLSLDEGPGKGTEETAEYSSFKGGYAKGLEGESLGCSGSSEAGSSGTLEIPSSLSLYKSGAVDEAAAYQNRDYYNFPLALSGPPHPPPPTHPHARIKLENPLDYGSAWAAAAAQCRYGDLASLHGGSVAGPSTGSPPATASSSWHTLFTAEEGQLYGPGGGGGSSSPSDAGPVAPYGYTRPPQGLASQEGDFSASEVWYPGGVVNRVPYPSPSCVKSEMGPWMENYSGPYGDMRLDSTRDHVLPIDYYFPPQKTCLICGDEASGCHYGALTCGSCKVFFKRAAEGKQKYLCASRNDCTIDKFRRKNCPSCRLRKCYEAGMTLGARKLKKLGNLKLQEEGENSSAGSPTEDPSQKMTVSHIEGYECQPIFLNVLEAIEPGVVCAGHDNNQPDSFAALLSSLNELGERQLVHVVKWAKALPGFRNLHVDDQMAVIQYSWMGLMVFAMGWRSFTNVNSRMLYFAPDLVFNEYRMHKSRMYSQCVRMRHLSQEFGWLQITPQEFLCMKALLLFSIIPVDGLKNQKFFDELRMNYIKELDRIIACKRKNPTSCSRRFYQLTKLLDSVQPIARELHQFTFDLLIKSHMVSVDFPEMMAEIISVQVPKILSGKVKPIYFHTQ
# Estrogen receptor beta = Estrogen receptor beta (Homo sapiens, UniProt Q92731)
# Estrogen receptor beta, sequence (Q92731 whole entry): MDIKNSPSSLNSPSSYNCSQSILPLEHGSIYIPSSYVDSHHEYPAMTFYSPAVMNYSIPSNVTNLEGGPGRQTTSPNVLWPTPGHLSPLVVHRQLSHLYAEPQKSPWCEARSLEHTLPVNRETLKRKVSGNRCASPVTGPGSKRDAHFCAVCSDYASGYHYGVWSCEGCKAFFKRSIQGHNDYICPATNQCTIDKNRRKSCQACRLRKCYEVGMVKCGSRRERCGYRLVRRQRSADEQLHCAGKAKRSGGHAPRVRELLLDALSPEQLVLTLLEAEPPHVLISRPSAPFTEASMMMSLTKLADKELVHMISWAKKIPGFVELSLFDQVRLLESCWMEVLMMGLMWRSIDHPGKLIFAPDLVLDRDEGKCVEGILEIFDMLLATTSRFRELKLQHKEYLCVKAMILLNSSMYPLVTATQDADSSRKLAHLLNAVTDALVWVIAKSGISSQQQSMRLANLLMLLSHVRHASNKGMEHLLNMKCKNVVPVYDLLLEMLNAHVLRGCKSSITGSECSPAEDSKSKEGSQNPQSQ
# [3] = molecular target: Voltage-dependent N-type calcium channel subunit alpha-1B (Rattus norvegicus, UniProt Q02294); format: functional
# Voltage-dependent N-type calcium channel subunit alpha-1B, sequence (Q02294 whole entry): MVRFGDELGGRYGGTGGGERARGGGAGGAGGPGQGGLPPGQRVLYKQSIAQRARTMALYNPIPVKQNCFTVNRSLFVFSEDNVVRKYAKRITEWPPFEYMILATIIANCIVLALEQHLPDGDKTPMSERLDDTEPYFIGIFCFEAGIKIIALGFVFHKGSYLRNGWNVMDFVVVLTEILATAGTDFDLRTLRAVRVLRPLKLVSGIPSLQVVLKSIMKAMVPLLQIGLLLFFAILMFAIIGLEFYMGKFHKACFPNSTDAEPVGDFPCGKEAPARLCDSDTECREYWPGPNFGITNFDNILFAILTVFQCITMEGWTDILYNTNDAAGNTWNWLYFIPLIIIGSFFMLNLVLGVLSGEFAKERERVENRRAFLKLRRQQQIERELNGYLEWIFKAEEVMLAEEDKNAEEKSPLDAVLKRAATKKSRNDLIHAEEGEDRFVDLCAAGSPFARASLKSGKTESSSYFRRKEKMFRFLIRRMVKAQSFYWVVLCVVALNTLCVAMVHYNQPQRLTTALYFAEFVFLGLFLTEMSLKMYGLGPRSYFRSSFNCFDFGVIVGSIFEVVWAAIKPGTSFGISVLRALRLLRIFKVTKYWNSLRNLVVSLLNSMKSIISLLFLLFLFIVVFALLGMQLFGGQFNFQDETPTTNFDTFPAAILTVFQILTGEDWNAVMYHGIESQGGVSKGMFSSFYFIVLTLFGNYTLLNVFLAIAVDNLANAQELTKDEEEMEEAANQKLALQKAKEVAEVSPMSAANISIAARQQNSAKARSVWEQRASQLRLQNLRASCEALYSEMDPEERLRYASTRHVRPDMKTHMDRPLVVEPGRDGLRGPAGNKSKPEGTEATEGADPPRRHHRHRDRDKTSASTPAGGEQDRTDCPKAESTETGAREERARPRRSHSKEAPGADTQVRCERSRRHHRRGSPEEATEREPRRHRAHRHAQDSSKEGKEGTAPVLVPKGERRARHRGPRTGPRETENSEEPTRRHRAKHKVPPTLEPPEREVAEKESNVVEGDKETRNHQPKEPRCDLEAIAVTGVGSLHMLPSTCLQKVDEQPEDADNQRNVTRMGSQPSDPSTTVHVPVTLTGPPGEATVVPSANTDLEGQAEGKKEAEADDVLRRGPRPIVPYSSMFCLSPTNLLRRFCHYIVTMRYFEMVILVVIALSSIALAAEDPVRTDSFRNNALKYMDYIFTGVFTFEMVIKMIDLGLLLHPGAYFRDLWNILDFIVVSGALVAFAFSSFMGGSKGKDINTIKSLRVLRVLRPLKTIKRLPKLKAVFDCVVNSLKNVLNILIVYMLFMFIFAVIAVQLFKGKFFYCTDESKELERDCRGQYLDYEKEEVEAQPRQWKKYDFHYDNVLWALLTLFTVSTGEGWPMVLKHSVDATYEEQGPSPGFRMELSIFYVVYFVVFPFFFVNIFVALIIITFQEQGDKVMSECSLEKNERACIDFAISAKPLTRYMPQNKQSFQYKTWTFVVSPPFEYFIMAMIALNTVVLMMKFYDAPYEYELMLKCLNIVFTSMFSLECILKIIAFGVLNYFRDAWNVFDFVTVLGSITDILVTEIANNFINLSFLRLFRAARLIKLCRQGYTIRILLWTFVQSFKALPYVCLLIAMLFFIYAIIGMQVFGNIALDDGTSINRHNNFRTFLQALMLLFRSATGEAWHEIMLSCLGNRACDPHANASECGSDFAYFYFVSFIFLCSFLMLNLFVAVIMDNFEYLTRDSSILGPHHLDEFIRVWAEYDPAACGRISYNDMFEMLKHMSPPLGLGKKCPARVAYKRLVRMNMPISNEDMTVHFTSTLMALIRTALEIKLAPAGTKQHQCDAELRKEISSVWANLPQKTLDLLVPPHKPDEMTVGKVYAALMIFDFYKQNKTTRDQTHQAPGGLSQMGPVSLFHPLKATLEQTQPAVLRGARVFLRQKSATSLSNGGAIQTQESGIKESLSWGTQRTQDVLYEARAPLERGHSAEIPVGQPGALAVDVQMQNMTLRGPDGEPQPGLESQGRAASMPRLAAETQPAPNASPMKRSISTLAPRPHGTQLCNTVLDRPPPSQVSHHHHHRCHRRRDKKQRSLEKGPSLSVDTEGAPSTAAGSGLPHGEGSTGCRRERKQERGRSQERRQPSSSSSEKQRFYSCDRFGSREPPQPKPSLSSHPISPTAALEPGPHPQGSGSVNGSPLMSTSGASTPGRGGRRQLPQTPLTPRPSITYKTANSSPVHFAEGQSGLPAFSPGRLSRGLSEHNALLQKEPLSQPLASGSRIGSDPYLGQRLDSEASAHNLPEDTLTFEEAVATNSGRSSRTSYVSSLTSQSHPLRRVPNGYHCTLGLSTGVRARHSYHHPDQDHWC
# [4] = molecular target: T3, Alpha-1A adrenergic receptor (Homo sapiens, UniProt P35348)
# T3 sequence (P35348 whole entry): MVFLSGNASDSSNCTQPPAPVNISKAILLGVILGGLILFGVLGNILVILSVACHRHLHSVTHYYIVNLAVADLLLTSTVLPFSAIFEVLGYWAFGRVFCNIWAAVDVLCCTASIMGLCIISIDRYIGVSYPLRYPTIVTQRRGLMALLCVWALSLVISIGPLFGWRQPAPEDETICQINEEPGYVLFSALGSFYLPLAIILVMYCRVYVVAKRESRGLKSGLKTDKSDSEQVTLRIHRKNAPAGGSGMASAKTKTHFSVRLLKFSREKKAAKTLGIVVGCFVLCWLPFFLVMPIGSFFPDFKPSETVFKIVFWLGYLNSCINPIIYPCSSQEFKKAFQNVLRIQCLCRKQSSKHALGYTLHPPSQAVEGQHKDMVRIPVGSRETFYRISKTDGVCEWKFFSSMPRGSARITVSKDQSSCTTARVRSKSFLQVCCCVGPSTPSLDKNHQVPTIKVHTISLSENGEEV
# [5] = molecular target: Gamma-aminobutyric acid type B receptor subunit 1 (Homo sapiens, UniProt Q9UBS5)
# Gamma-aminobutyric acid type B receptor subunit 1, sequence (Q9UBS5 whole entry): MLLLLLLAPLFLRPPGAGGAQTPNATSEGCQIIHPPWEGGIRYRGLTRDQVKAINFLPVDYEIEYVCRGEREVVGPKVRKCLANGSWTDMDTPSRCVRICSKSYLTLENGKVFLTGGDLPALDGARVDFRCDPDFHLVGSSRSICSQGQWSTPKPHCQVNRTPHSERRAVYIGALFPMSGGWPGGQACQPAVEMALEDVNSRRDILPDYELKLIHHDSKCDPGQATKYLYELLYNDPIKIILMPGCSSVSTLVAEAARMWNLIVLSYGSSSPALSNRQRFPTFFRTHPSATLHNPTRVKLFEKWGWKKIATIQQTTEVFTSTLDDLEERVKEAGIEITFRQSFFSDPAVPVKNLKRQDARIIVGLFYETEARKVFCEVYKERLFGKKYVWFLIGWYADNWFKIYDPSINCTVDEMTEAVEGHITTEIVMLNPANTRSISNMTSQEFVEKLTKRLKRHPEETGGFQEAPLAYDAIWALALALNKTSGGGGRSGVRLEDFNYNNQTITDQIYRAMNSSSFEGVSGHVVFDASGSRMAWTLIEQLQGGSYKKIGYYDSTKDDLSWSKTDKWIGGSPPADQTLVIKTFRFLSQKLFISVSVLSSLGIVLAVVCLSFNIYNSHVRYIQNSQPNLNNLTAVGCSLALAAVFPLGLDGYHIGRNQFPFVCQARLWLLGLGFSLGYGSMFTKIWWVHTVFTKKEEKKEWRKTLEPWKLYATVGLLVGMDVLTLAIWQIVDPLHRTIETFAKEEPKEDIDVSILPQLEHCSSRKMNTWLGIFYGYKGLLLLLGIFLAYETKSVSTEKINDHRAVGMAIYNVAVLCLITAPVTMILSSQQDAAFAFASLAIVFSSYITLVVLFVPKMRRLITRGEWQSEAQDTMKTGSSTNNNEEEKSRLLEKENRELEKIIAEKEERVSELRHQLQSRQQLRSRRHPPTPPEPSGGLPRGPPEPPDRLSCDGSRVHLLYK
# D(4) dopamine receptor = molecular target: T4, D(4) dopamine receptor (Homo sapiens, UniProt P21917)
# T4 sequence (P21917 whole entry): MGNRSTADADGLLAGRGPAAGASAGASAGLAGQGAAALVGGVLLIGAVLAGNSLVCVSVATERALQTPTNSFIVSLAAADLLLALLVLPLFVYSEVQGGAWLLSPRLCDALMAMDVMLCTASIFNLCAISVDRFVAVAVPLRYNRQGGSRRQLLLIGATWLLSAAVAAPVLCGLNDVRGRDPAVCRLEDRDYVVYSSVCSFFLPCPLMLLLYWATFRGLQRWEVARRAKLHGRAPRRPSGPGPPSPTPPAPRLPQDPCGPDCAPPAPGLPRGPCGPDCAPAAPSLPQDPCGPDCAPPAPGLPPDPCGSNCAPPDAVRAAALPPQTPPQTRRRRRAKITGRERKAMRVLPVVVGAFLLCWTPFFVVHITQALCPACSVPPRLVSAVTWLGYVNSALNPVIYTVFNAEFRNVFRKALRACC
# Adenosine receptor A1 = molecular target: T5, Adenosine receptor A1 (Homo sapiens, UniProt P30542)
# T5 sequence (P30542 whole entry): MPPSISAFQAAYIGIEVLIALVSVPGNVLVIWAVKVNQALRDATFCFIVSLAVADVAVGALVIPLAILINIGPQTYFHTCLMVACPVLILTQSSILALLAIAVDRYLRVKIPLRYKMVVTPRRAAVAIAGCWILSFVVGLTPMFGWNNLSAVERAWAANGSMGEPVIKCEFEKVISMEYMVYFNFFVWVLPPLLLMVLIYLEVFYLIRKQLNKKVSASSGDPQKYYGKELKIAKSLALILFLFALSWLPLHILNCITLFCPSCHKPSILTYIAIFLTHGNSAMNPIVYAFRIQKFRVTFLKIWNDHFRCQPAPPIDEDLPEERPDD
# D(1A) dopamine receptor = D(1A) dopamine receptor (Homo sapiens, UniProt P21728)
# D(1A) dopamine receptor, sequence (P21728 whole entry): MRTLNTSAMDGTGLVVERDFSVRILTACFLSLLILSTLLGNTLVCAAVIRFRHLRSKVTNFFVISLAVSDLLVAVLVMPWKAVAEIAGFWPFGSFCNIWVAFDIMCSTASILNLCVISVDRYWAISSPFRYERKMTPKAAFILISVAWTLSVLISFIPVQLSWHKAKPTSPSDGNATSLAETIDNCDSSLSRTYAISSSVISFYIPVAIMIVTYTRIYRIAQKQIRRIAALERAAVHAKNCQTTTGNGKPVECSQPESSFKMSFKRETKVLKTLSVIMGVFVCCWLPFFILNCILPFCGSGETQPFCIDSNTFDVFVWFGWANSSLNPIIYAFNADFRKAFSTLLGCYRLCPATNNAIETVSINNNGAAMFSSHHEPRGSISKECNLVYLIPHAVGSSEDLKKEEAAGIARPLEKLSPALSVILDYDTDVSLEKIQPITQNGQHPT
# [6] = molecular target: Sodium channel protein type 5 subunit alpha (Homo sapiens, UniProt Q14524); format: functional, cell-based
# Cannabinoid receptor 1 = Cannabinoid receptor 1 (Homo sapiens, UniProt P21554); format: functional
# Cannabinoid receptor 1, sequence (P21554 whole entry): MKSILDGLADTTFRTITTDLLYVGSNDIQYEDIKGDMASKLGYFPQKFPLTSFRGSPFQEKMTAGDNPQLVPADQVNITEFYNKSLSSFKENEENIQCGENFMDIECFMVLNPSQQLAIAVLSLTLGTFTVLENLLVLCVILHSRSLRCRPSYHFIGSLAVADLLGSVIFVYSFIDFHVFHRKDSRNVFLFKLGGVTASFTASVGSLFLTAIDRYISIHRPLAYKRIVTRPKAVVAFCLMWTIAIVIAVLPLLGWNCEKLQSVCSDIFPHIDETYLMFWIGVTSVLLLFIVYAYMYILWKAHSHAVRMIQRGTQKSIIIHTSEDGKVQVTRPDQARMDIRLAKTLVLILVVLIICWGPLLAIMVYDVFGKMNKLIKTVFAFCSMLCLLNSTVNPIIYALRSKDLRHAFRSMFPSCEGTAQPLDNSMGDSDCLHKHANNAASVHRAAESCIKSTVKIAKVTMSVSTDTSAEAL
# Further: assay procedure not described here.
smiles,measurement,setting,value
CCC(C)C(CC)C(N)=O (centres undefined) [VALNOCTAMIDE],AC50,Histamine H1 receptor [1],> 30 µM
same,AC50,Histamine H1 receptor [2],> 30 µM
same,AC50,Androgen receptor,> 30 µM
Cc1cnc(C(=O)NCCc2ccc(S(=O)(=O)NC(=O)NC3CCCCC3)cc2)cn1 [GLIPIZIDE],AC50,Estrogen receptor beta,> 30 µM
same,AC50,[3],> 10 µM
same,AC50,[4],> 10 µM
same,AC50,[5],> 10 µM
same,AC50,D(4) dopamine receptor,> 10 µM
same,AC50,Adenosine receptor A1,> 30 µM
[H]/N=C(/N)N/C(=N/[H])NCCc1ccccc1 [PHENFORMIN],AC50,Estrogen receptor beta,> 30 µM
same,AC50,[3],> 10 µM
same,AC50,D(1A) dopamine receptor,> 10 µM
C=C1CC[C@H](O)C/C1=C/C=C1\CCC[C@]2(C)[C@@H]([C@H](C)/C=C/[C@H](C)C(C)C)CC[C@@H]12 [ERGOCALCIFEROL],AC50,Adenosine receptor A1,> 30 µM
O=C(O)c1cn(C2CC2)c2cc(N3CCNCC3)c(F)cc2c1=O [CIPROFLOXACIN],AC50,Estrogen receptor beta,> 30 µM
same,AC50,Adenosine receptor A1,> 30 µM
CCN(CC)C(=S)S [DITIOCARB],AC50,Adenosine receptor A1,> 30 µM
CCOC(=O)C1=C(C)NC(C)=C(C(=O)OC)C1c1cccc([N+](=O)[O-])c1 (centres undefined) [NITRENDIPINE],AC50,Estrogen receptor beta,> 30 µM
same,AC50,[3],> 10 µM
same,AC50,D(1A) dopamine receptor,> 10 µM
same,AC50,[6],5 µM
CCOC(=O)[C@H](CCc1ccccc1)N[C@@H](C)C(=O)N(CC(=O)O)C1Cc2ccccc2C1,AC50,Adenosine receptor A1,> 30 µM
OC1(c2ccc(Cl)cc2)c2ccccc2C2=NCCN21 (centres undefined) [MAZINDOL],AC50,Cannabinoid receptor 1,> 10 µM
same,AC50,Estrogen receptor beta,> 30 µM
same,AC50,Androgen receptor,> 30 µM
same,AC50,[3],> 10 µM
same,AC50,[4],> 10 µM
same,AC50,[5],> 10 µM
same,AC50,D(4) dopamine receptor,> 10 µM
same,AC50,D(1A) dopamine receptor,> 10 µM
same,AC50,[6],> 50 µM
CN1CCN(C2=Nc3ccccc3Oc3ccc(Cl)cc32)CC1 [LOXAPINE],AC50,Cannabinoid receptor 1,> 10 µM
same,AC50,Estrogen receptor beta,> 30 µM
same,AC50,[3],> 10 µM
same,AC50,[4],0.169 µM
same,AC50,[5],> 10 µM
same,AC50,D(4) dopamine receptor,0.0144 µM
same,AC50,D(1A) dopamine receptor,0.102 µM
CC(CCc1ccc(O)cc1)NCCc1ccc(O)c(O)c1 (centres undefined) [DOBUTAMINE],AC50,Estrogen receptor beta,> 30 µM
same,AC50,[3],> 10 µM
same,AC50,[4],0.0704 µM
same,AC50,D(4) dopamine receptor,2.42 µM
same,AC50,D(1A) dopamine receptor,> 10 µM
CCC1(c2ccccc2)CCC(=O)NC1=O (centres undefined) [GLUTETHIMIDE],AC50,[6],> 50 µM
CC12CC3CC(C)(C1)CC(N)(C3)C2 [MEMANTINE],AC50,Histamine H1 receptor [1],> 30 µM
same,AC50,Estrogen receptor beta,> 30 µM
same,AC50,Histamine H1 receptor [2],> 30 µM
same,AC50,[3],> 10 µM
CC(=O)N[C@@H](CS)C(=O)O [ACETYLCYSTEINE],AC50,Histamine H1 receptor [1],> 30 µM
same,AC50,Histamine H1 receptor [2],> 30 µM
O=[N+]([O-])c1ccc(O)c2ncccc12 [NITROXOLINE],AC50,Adenosine receptor A1,> 30 µM
COCC1=C(C(=O)O)N2C(=O)[C@@H](NC(=O)/C(=N\OC)c3csc(N)n3)[C@H]2SC1 [CEFPODOXIME],AC50,Androgen receptor,> 30 µM
Oc1ccc2c(c1)CC[C@H](c1ccccc1)[C@@H]2c1ccc(OCCN2CCCC2)cc1 [LASOFOXIFENE],AC50,Androgen receptor,23 µM
C[C@]12CC[C@@H]3c4ccc(O)cc4C[C@@H](CCCCCCCCC[S+]([O-])CCCC(F)(F)C(F)(F)F)[C@H]3[C@@H]1CC[C@@H]2O (some centres undefined) [FULVESTRANT],AC50,Histamine H1 receptor [1],> 30 µM
same,AC50,Histamine H1 receptor [2],> 30 µM
same,AC50,[6],> 10 µM
CC(C)NCC(O)c1ccc(O)c(O)c1 (centres undefined) [ISOPROTERENOL],AC50,Estrogen receptor beta,> 30 µM
same,AC50,[3],> 10 µM
same,AC50,D(4) dopamine receptor,> 10 µM
same,AC50,D(1A) dopamine receptor,> 10 µM
CC[C@@H]([C@H](C)O)n1ncn(-c2ccc(N3CCN(c4ccc(OC[C@@H]5CO[C@@](Cn6cncn6)(c6ccc(F)cc6F)C5)cc4)CC3)cc2)c1=O [POSACONAZOLE],AC50,Adenosine receptor A1,> 30 µM
CCC[C@H](NC(=O)[C@@H]1[C@H]2CCC[C@H]2CN1C(=O)[C@@H](NC(=O)[C@@H](NC(=O)c1cnccn1)C1CCCCC1)C(C)(C)C)C(=O)C(=O)NC1CC1,AC50,[3],> 10 µM
same,AC50,D(1A) dopamine receptor,> 10 µM
CN(C)CCCNc1c2ccccc2nc2cccc([N+](=O)[O-])c12 [NITRACRINE],AC50,Androgen receptor,> 30 µM
C=CCNc1nc(NCC=C)nc(N2CCN(C(c3ccc(F)cc3)c3ccc(F)cc3)CC2)n1 [ALMITRINE],AC50,Androgen receptor,> 30 µM
Clc1ccc2c(N3CCN(CCCN4CCN(c5ccnc6cc(Cl)ccc56)CC4)CC3)ccnc2c1 [PIPERAQUINE],AC50,Androgen receptor,> 30 µM
CC(C)COCC(CN(Cc1ccccc1)c1ccccc1)N1CCCC1 (centres undefined) [BEPRIDIL],AC50,Estrogen receptor beta,> 30 µM
same,AC50,[6],2.1 µM
CN1CCC(=C2c3ccccc3CCc3cccnc32)CC1 [AZATADINE],AC50,Histamine H1 receptor [1],0.0665 µM
same,AC50,Histamine H1 receptor [2],> 30 µM
CCC(C)C1(CC)C(=O)NC(=O)NC1=O (centres undefined) [BUTABARBITAL],AC50,Androgen receptor,> 30 µM
CC(N)C(O)c1ccccc1 (centres undefined) [PHENYLPROPANOLAMINE],AC50,Cannabinoid receptor 1,> 10 µM
same,AC50,[3],> 10 µM
same,AC50,[4],> 10 µM
same,AC50,[5],> 10 µM
same,AC50,D(4) dopamine receptor,> 10 µM
same,AC50,D(1A) dopamine receptor,> 10 µM
CCC(=O)O[C@]1(C(=O)SCF)[C@H](C)C[C@H]2[C@@H]3C[C@H](F)C4=CC(=O)C=C[C@]4(C)[C@@]3(F)[C@@H](O)C[C@@]21C [FLUTICASONE PROPIONATE],AC50,[3],> 10 µM
same,AC50,[4],> 10 µM
same,AC50,D(4) dopamine receptor,> 10 µM
same,AC50,D(1A) dopamine receptor,> 10 µM
Cc1cccc(N2CC(CO)OC2=O)c1 (centres undefined) [TOLOXATONE],AC50,Androgen receptor,> 30 µM
CC(=O)O[C@]1(C(C)=O)CC[C@H]2[C@@H]3C=C(Cl)C4=CC(=O)CC[C@]4(C)[C@H]3CC[C@@]21C [CHLORMADINONE ACETATE],AC50,Adenosine receptor A1,> 30 µM
C[C@H](Cc1ccc(O)c(O)c1)[C@@H](C)Cc1ccc(O)c(O)c1 [MASOPROCOL],AC50,Histamine H1 receptor [1],23 µM
same,AC50,Histamine H1 receptor [2],> 30 µM
